The results in this text go back to patent US9751926B2 (priority 2013, dated 2017).

Non-standard residues stand in square brackets, D forms with d. Residues, ends and D or L forms follow the SMILES beside them. Met(O2) = CS(=O)(=O)CC[C@H](N)C(=O)O; Aib = CC(C)(N)C(=O)O

One data set addresses T1, human glucagon receptor (Homo sapiens, UniProt P47871).
T1 construct: expressed in transfected cells
As to the kind of experiment: cAMP response (HTRF) of HEK-293 cells stably expressing human glucagon receptor. The class given is cell-based. The note with it: Table 6; formed cAMP; read-out: EC50 hGLUC R. As to the method:
(§1) cAMP content of cells was determined using a kit from Cisbio Corp. (cat. no. 62AM4PEC) based on HTRF (Homogenous Time Resolved Fluorescence). For preparation, cells were split into T175 culture flasks and grown overnight to near confluency in medium (DMEM/10% FBS). Medium was then removed and cells washed with PBS lacking calcium and magnesium, followed by proteinase treatment with accutase (Sigma-Aldrich cat. no. A6964). Detached cells were washed and resuspended in assay buffer (1×HBSS; 20 mM HEPES, 0.1% BSA, 2 mM IBMX) and cellular density determined. They were then diluted to 400000 cells/ml and 25 μl-aliquots dispensed into the wells of 96-well plates. For measurement, 25 μl of test compound in assay buffer was added to the wells, followed by incubation for 30 minutes at room temperature.
(In TR-FRET formats the signal depends on donor and acceptor labels being close together.)

The next data set concerns the target T2, human GLP-1 receptor (Homo sapiens, UniProt P43220).
T2 construct: expressed in transfected cells
Description: cAMP response (HTRF) of HEK-293 cells stably expressing human GLP-1 receptor. The class given is cell-based. The settings on record: Table 6; formed cAMP; read-out: EC50 hGLP-1 R. The method, then:
as §1

A further data set is described as follows: physchem. The class given is physicochemical.

T2 sequence (P43220 24-463): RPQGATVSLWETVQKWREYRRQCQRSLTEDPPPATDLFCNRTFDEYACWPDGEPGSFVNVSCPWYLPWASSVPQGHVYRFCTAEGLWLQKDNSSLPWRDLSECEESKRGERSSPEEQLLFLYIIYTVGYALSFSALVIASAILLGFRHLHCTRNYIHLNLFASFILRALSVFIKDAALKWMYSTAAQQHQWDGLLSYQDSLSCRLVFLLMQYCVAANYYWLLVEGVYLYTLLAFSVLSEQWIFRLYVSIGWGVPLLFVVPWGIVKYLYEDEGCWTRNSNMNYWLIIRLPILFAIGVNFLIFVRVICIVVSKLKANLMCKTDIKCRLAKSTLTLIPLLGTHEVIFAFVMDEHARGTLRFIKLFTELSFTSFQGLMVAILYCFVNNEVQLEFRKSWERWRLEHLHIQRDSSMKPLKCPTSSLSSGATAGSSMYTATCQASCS
T1 sequence (P47871 26-477): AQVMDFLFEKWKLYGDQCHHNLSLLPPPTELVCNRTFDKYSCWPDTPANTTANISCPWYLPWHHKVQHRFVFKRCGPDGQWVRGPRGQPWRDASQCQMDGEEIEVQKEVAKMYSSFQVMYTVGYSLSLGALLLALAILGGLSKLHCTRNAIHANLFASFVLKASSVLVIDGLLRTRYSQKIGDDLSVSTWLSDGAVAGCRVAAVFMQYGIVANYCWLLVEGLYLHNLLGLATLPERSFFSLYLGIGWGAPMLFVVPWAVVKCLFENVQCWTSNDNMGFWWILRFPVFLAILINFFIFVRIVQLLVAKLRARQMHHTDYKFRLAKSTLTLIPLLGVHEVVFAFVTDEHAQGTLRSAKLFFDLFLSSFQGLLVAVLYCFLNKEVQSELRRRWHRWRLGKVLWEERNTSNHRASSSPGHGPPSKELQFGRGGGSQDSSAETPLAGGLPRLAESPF

By EC50 is commonly meant the concentration that produces a half-maximal response. Take `CC[C@H](C)[C@H](NC(=O)[C@H](CO)NC(=O)[C@H](CC(C)C)NC(=O)[C@H](CC(=O)O)NC(=O)[C@H](CO)NC(=O)[C@@H](NC(=O)[C@H](Cc1ccccc1)NC(=O)[C@@H](NC(=O)CNC(=O)[C@H](CCC(=O)O)NC(=O)C(C)(C)NC(=O)[C@@H](N)Cc1ccc(O)cc1)[C@@H](C)O)[C@@H](C)O)C(=O)N[C@@H](CCC(N)=O)C(=O)N[C@@H](CC(C)C)C(=O)N[C@@H](CCC(=O)O)C(=O)N[C@@H](CCC(=O)O)C(=O)N[C@@H](CCC(=O)O)C(=O)N[C@@H](C)C(=O)N[C@H](C(=O)NC(C)(C)C(=O)N[C@@H](CC(C)C)C(=O)N[C@@H](Cc1ccccc1)C(=O)N[C@H](C(=O)N[C@@H](CCC(=O)O)C(=O)N[C@@H](Cc1c[nH]c2ccccc12)C(=O)N[C@@H](CC(C)C)C(=O)N[C@@H](CCCCN)C(=O)N[C@@H](C)C(=O)NCC(=O)NCC(=O)N1CCC[C@H]1C(=O)N[C@@H](CO)C(=O)N[C@@H](CO)C(=O)NCC(=O)N[C@@H](C)C(=O)N1CCC[C@H]1C(=O)N1CCC[C@H]1C(=O)N1CCC[C@H]1C(=O)N[C@@H](CO)C(N)=O)[C@@H](C)CC)C(C)C` [compound 16]: the EC50 on human glucagon receptor is over 1000 nM; at human GLP-1 receptor, 0.001 nM. As for `CC[C@H](C)[C@H](NC(=O)[C@H](CO)NC(=O)[C@H](CC(C)C)NC(=O)[C@H](CC(=O)O)NC(=O)[C@H](CO)NC(=O)[C@@H](NC(=O)[C@H](Cc1ccccc1)NC(=O)[C@@H](NC(=O)CNC(=O)[C@H](CCC(=O)O)NC(=O)C(C)(C)NC(=O)[C@@H](N)Cc1ccc(O)cc1)[C@@H](C)O)[C@@H](C)O)C(=O)N[C@@H](CCC(N)=O)C(=O)N[C@@H](CC(C)C)C(=O)N[C@@H](CCC(=O)O)C(=O)N[C@@H](CCC(=O)O)C(=O)N[C@@H](CCC(=O)O)C(=O)N[C@@H](C)C(=O)N[C@H](C(=O)N[C@](C)(CCCCN)C(=O)N[C@@H](CC(C)C)C(=O)N[C@@H](Cc1ccccc1)C(=O)N[C@H](C(=O)N[C@@H](CCC(=O)O)C(=O)N[C@@H](Cc1c[nH]c2ccccc12)C(=O)N[C@@H](CC(C)C)C(=O)N[C@@H](CCCCN)C(=O)N[C@@H](C)C(=O)NCC(=O)NCC(=O)N1CCC[C@H]1C(=O)N[C@@H](CO)C(=O)N[C@@H](CO)C(=O)NCC(=O)N[C@@H](C)C(=O)N1CCC[C@H]1C(=O)N1CCC[C@H]1C(=O)N1CCC[C@H]1C(=O)N[C@@H](CO)C(N)=O)[C@@H](C)CC)C(C)C` [compound 18], on human glucagon receptor, the EC50 is over 1000 nM. `CC[C@H](C)[C@H](NC(=O)[C@H](CO)NC(=O)[C@H](CC(C)C)NC(=O)[C@H](CC(=O)O)NC(=O)[C@H](CO)NC(=O)[C@@H](NC(=O)[C@H](Cc1ccccc1)NC(=O)[C@@H](NC(=O)CNC(=O)[C@H](CCC(=O)O)NC(=O)C(C)(C)NC(=O)[C@@H](N)Cc1ccc(O)cc1)[C@@H](C)O)[C@@H](C)O)C(=O)N[C@@H](CCC(N)=O)C(=O)N[C@@H](CC[S+](C)[O-])C(=O)N[C@@H](CCC(=O)O)C(=O)N[C@@H](CCCCN)C(=O)N[C@@H](CCC(=O)O)C(=O)N[C@@H](C)C(=O)N[C@H](C(=O)N[C@@H](CCCNC(=N)N)C(=O)N[C@@H](CC(C)C)C(=O)N[C@@H](Cc1ccccc1)C(=O)N[C@H](C(=O)N[C@@H](CCC(=O)O)C(=O)N[C@@H](Cc1c[nH]c2ccccc12)C(=O)N[C@@H](CC(C)C)C(=O)N[C@@H](CCCCN)C(=O)N[C@@H](C)C(=O)NCC(=O)NCC(=O)N1CCC[C@H]1C(=O)N[C@@H](CO)C(=O)N[C@@H](CO)C(=O)NCC(=O)N[C@@H](C)C(=O)N1CCC[C@H]1C(=O)N1CCC[C@H]1C(=O)N1CCC[C@H]1C(=O)N[C@@H](CO)C(N)=O)[C@@H](C)CC)C(C)C` (stereo partly shown) [compound 13]: the EC50 on human glucagon receptor is over 1000 nM.

Take `CC[C@H](C)[C@H](NC(=O)[C@H](CO)NC(=O)[C@H](CC(C)C)NC(=O)[C@H](CC(=O)O)NC(=O)[C@H](CO)NC(=O)[C@@H](NC(=O)[C@H](Cc1ccccc1)NC(=O)[C@@H](NC(=O)CNC(=O)[C@H](CCC(=O)O)NC(=O)C(C)(C)NC(=O)[C@@H](N)Cc1ccc(O)cc1)[C@@H](C)O)[C@@H](C)O)C(=O)N[C@@H](CCC(N)=O)C(=O)N[C@@H](CC(C)C)C(=O)N[C@@H](CCC(=O)O)C(=O)N[C@@H](CCCCN)C(=O)N[C@@H](CCC(=O)O)C(=O)N[C@@H](C)C(=O)N[C@H](C(=O)N[C@@H](CCCNC(=N)N)C(=O)N[C@@H](CC(C)C)C(=O)N[C@@H](Cc1ccccc1)C(=O)N[C@H](C(=O)N[C@@H](CCC(=O)O)C(=O)N[C@@H](Cc1c[nH]c2ccccc12)C(=O)N[C@@H](CC(C)C)C(=O)N[C@@H](CCCCN)C(=O)N[C@@H](C)C(=O)NCC(=O)NCC(=O)N1CCC[C@H]1C(=O)N[C@@H](CO)C(=O)N[C@@H](CO)C(=O)NCC(=O)N[C@@H](C)C(=O)N1CCC[C@H]1C(=O)N1CCC[C@H]1C(=O)N1CCC[C@H]1C(=O)N[C@@H](CO)C(N)=O)[C@@H](C)CC)C(C)C` [compound 20]: the EC50 is over 1000 nM on human glucagon receptor and 0.001 nM on human GLP-1 receptor. The solubility is the concentration that dissolves in the medium under given conditions. A low value points to a poorly soluble substance. For `CC[C@H](C)[C@H](NC(=O)[C@H](CO)NC(=O)[C@H](CC(C)C)NC(=O)[C@H](CC(=O)O)NC(=O)[C@H](CO)NC(=O)[C@@H](NC(=O)[C@H](Cc1ccccc1)NC(=O)[C@@H](NC(=O)CNC(=O)[C@H](CCC(=O)O)NC(=O)C(C)(C)NC(=O)[C@@H](N)Cc1ccc(O)cc1)[C@@H](C)O)[C@@H](C)O)C(=O)N[C@@H](CCC(N)=O)C(=O)N[C@@H](CCS(C)(=O)=O)C(=O)N[C@@H](CCC(=O)O)C(=O)N[C@@H](CCCCN)C(=O)N[C@@H](CCC(=O)O)C(=O)N[C@@H](C)C(=O)N[C@H](C(=O)N[C@@H](CCCNC(=N)N)C(=O)N[C@@H](CC(C)C)C(=O)N[C@@H](Cc1ccccc1)C(=O)N[C@H](C(=O)N[C@@H](CCC(=O)O)C(=O)N[C@@H](Cc1c[nH]c2ccccc12)C(=O)N[C@@H](CC(C)C)C(=O)N[C@@H](CCCCN)C(=O)N[C@@H](C)C(=O)NCC(=O)NCC(=O)N1CCC[C@H]1C(=O)N[C@@H](CO)C(=O)N[C@@H](CO)C(=O)NCC(=O)N[C@@H](C)C(=O)N1CCC[C@H]1C(=O)N1CCC[C@H]1C(=O)N1CCC[C@H]1C(=O)N[C@@H](CO)C(N)=O)[C@@H](C)CC)C(C)C` [compound 14] (H-Y[Aib]EGTFTSDLSIQ[Met(O2)]EKEAVRLFIEWLKAGGPSSGAPPPS-NH2), on human glucagon receptor, the EC50 was over 1000 nM. The solubility at 2 h in the data set “physchem” (pH 4.5) and in the data set “physchem” (pH 7.4) was over 1000 µg/mL each time. Consider `CC[C@H](C)[C@H](NC(=O)[C@H](CO)NC(=O)[C@H](CC(C)C)NC(=O)[C@H](CC(=O)O)NC(=O)[C@H](CO)NC(=O)[C@@H](NC(=O)[C@H](Cc1ccccc1)NC(=O)[C@@H](NC(=O)CNC(=O)[C@H](CCC(=O)O)NC(=O)C(C)(C)NC(=O)[C@@H](N)Cc1ccc(O)cc1)[C@@H](C)O)[C@@H](C)O)C(=O)N[C@@H](CCC(N)=O)C(=O)N[C@@H](CCSC)C(=O)N[C@@H](CCC(=O)O)C(=O)N[C@@H](CCCCN)C(=O)N[C@@H](CCC(=O)O)C(=O)N[C@@H](C)C(=O)N[C@H](C(=O)N[C@@H](CCCNC(=N)N)C(=O)N[C@@H](CC(C)C)C(=O)N[C@@H](Cc1ccccc1)C(=O)N[C@H](C(=O)N[C@@H](CCC(=O)O)C(=O)N[C@@H](Cc1c[nH]c2ccccc12)C(=O)N[C@@H](CC(C)C)C(=O)N[C@@H](CCCCN)C(=O)N[C@@H](C)C(=O)NCC(=O)NCC(=O)N1CCC[C@H]1C(=O)N[C@@H](CO)C(=O)N[C@@H](CO)C(=O)NCC(=O)N[C@@H](C)C(=O)N1CCC[C@H]1C(=O)N1CCC[C@H]1C(=O)N1CCC[C@H]1C(=O)N[C@@H](CO)C(N)=O)[C@@H](C)CC)C(C)C` [compound 9] (H-Y[Aib]EGTFTSDLSIQMEKEAVRLFIEWLKAGGPSSGAPPPS-NH2), for which the EC50 at human glucagon receptor was over 1000 nM; on human GLP-1 receptor, 0.0011 nM. `CC[C@H](C)[C@H](NC(=O)[C@H](CO)NC(=O)[C@H](CC(C)C)NC(=O)[C@H](CC(=O)O)NC(=O)[C@H](CO)NC(=O)[C@@H](NC(=O)[C@H](Cc1ccccc1)NC(=O)[C@@H](NC(=O)CNC(=O)[C@H](CCC(=O)O)NC(=O)C(C)(C)NC(=O)[C@@H](N)Cc1ccc(O)cc1)[C@@H](C)O)[C@@H](C)O)C(=O)N[C@@H](CCC(N)=O)C(=O)N[C@@H](CC(C)C)C(=O)N[C@@H](CCC(=O)O)C(=O)N[C@@H](CCC(=O)O)C(=O)N[C@@H](CCC(=O)O)C(=O)N[C@@H](C)C(=O)N[C@H](C(=O)N[C@@H](CCCNC(=N)N)C(=O)N[C@@H](CC(C)C)C(=O)N[C@@H](Cc1ccccc1)C(=O)N[C@H](C(=O)N[C@@H](CCC(=O)O)C(=O)N[C@@H](Cc1c[nH]c2ccccc12)C(=O)N[C@@H](CC(C)C)C(=O)N[C@@H](CCCCN)C(=O)N[C@@H](C)C(=O)NCC(=O)NCC(=O)N1CCC[C@H]1C(=O)N[C@@H](CO)C(=O)N[C@@H](CO)C(=O)NCC(=O)N[C@@H](C)C(=O)N1CCC[C@H]1C(=O)N1CCC[C@H]1C(=O)N1CCC[C@H]1C(=O)N[C@@H](CO)C(N)=O)[C@@H](C)CC)C(C)C` [compound 15] (H-Y[Aib]EGTFTSDLSIQLEEEAVRLFIEWLKAGGPSSGAPPPS-NH2): the EC50 at human glucagon receptor was over 1000 nM. For the compound `CC[C@H](C)[C@H](NC(=O)[C@H](CO)NC(=O)[C@H](CC(C)C)NC(=O)[C@H](CC(=O)O)NC(=O)[C@H](CO)NC(=O)[C@@H](NC(=O)[C@H](Cc1ccccc1)NC(=O)[C@@H](NC(=O)CNC(=O)[C@H](CCC(=O)O)NC(=O)C(C)(C)NC(=O)[C@@H](N)Cc1ccc(O)cc1)[C@@H](C)O)[C@@H](C)O)C(=O)N[C@@H](CCC(N)=O)C(=O)N[C@@H](CC(C)C)C(=O)N[C@@H](CCC(=O)O)C(=O)N[C@@H](CCCCN)C(=O)N[C@@H](CCC(=O)O)C(=O)N[C@@H](C)C(=O)N[C@H](C(=O)N[C@@H](CCCNC(=N)N)C(=O)N[C@@H](CC(C)C)C(=O)N[C@@H](Cc1ccccc1)C(=O)N[C@H](C(=O)N[C@@H](CCC(=O)O)C(=O)N[C@@H](Cc1c[nH]c2ccccc12)C(=O)N[C@@H](CC(C)C)C(=O)N[C@@H](CCCCN)C(=O)N[C@@H](C)C(=O)NCC(=O)NCC(=O)N1CCC[C@H]1C(=O)N[C@@H](CO)C(=O)N[C@@H](CO)C(=O)NCC(=O)N[C@@H](C)C(=O)N1CCC[C@H]1C(=O)N1CCC[C@H]1C(=O)N1CCC[C@H]1C(=O)N[C@@H](CO)C(N)=O)[C@@H](C)CC)C(C)C` [compound 10], at human GLP-1 receptor, the EC50 was 0.0012 nM.
